Measured values from US6472348B1, “Pyridone derivatives and herbicides” (Kumiai Chemical Industry Co., Ltd., priority 1996, dated 2002).

How the values were obtained:
[1] = tested on: pale smartweed (Po); assay: Test Example 3: herbicidal effects by upland field foliage treatment; assay type: in vivo; set-up: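 grade of growth control; 5 = at least 90%; 4 = 70 to 90%; 3 = 50 to 70%; 2 = 30 to 50%; 1 = 10 to 30%; 0 = under 10%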
Method in brief: (§1)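 Sowing into sand pots with a 120 cm^2 surface, followed by soil covering and 2 weeks of greenhouse growth, preceded the leaf treatment. Scoring of weed control took place on the 14th day afterwards according to set evaluation criteria.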

[2] = tested on: rice flatsedge (Ci); assay: as above; assay type: in vivo; set-up: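 grade of growth control; 5 = at least 90%; 4 = 70 to 90%; 3 = 50 to 70%; 2 = 30 to 50%; 1 = 10 to 30%; 0 = under 10%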
Method in brief: as §1

[3] = tested on: slender amaranth (Am); assay: as above; assay type: in vivo; set-up: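 grade of growth control; 5 = at least 90%; 4 = 70 to 90%; 3 = 50 to 70%; 2 = 30 to 50%; 1 = 10 to 30%; 0 = under 10%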
Method in brief: as §1

[4] = tested on: common lambsquarters (Ch); assay: as above; assay type: in vivo; set-up: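 grade of growth control; 5 = at least 90%; 4 = 70 to 90%; 3 = 50 to 70%; 2 = 30 to 50%; 1 = 10 to 30%; 0 = under 10%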
Method in brief: as §1

[5] = tested on: barnyardgrass (Ec); assay: as above; assay type: in vivo; set-up: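 grade of growth control; 5 = at least 90%; 4 = 70 to 90%; 3 = 50 to 70%; 2 = 30 to 50%; 1 = 10 to 30%; 0 = under 10%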
Method in brief: as §1

[6] = tested on: Diaitaria ciliaris (Di); assay: as above; assay type: in vivo; set-up: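 grade of growth control; 5 = at least 90%; 4 = 70 to 90%; 3 = 50 to 70%; 2 = 30 to 50%; 1 = 10 to 30%; 0 = under 10%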
Method in brief: as §1

[7] = tested on: corn (Ze); assay: Test Example 11: crop plant selectivity by upland field foliage treatment (corn), phytotoxicity; conditions: dose 1.6 g ai/10a
Method in brief: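 Corn with pale smartweed, slender amaranth, common lambsquarters and China jute sown in sand-filled pots and grown 2 weeks in a greenhouse before foliage treatment. Herbicidal effect and crop phytotoxicity scored on day 14 after treatment against a rating standard.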

[8] = 100 g active ingredient per 10 ares, evaluated 14th day after treatment
[9] = corn, foliage treatment, evaluated on 14th day after treatment, index per Table 47
[10] = 100 g of the active ingredient per 10 ares, evaluated on the 14th day after treatment
[11] = upland field foliage treatment, 14th day after treatment

| SMILES | Herbicidal effects Po [1, 8] | Herbicidal effects Ci [2, 8] | Herbicidal effects Am [3, 8] | Herbicidal effects Ch [4, 8] | Herbicidal effects Ec [5, 8] | Herbicidal effects Di [6, 8] | Phytotoxicity Ze [7, 9] | Herbicidal effects Po [1, 10] | Herbicidal effects Ci [2, 10] | Herbicidal effects Am [3, 10] | Herbicidal effects Ch [4, 10] | Herbicidal effects Ec [5, 10] | Herbicidal effects Di [6, 10] | Phytotoxicity Ze [7, 11] |
| --- | --- | --- | --- | --- | --- | --- | --- | --- | --- | --- | --- | --- | --- | --- |
| C#CC(C)Oc1cc(-c2cn(C)c(C(F)(F)F)cc2=O)c(F)cc1Cl (racemic) [Compound 6-10] | 5 | 5 | 5 | 5 | 5 | 5 | 1 |  |  |  |  |  |  |  |
| COc1cc(-c2ccc(C(F)(F)F)n(C)c2=O)c(F)cc1Cl [1-15] |  |  |  |  |  |  |  | 5 | 5 | 5 | 5 | 5 | 5 |  |
| C=CCOc1cc(-c2ccc(C(F)(F)F)n(C)c2=O)c(F)cc1Cl [1-16] |  |  |  |  |  |  |  | 5 | 5 | 5 | 5 | 5 | 5 | 2 |
| C#CC(C)Oc1cc(-c2ccc(C(F)(F)F)n(C)c2=O)c(F)cc1Cl (stereo not shown) [1-17] |  |  |  |  |  |  |  | 5 | 5 | 5 | 5 | 5 | 5 |  |
| C#CCOc1cc(-c2ccc(C(F)(F)F)n(C)c2=O)c(F)cc1Cl [1-18] |  |  |  |  |  |  |  | 5 | 5 | 5 | 5 | 5 | 5 | 2 |
| Cn1c(C(F)(F)F)ccc(-c2cc(OCC#N)c(Cl)cc2F)c1=O [1-25] |  |  |  |  |  |  |  | 5 | 5 | 5 | 5 | 5 | 5 | 2 |
| C#CCOc1cc(-c2ccc(C(F)(F)F)n(C)c2=O)c(Cl)cc1Cl [1-30] |  |  |  |  |  |  |  | 5 | 5 | 5 | 5 | 5 | 5 | 2 |
| CC(C)Sc1cc(-c2ccc(C(F)(F)F)n(C)c2=O)c(F)cc1Cl [1-43] |  |  |  |  |  |  |  | 5 | 5 | 5 | 5 | 5 | 5 |  |
| C#CCSc1cc(-c2ccc(C(F)(F)F)n(C)c2=O)c(F)cc1Cl [1-44] |  |  |  |  |  |  |  | 5 | 5 | 5 | 5 | 5 | 5 |  |
| CCOC(=O)c1cc(-c2ccc(C(F)(F)F)n(C)c2=O)c(F)cc1Cl [1-65] |  |  |  |  |  |  |  | 5 | 5 | 5 | 5 | 5 | 5 | 2 |
| Cc1cc(-c2ccc(C(F)(F)F)n(C)c2=O)c(F)cc1Cl [1-90] |  |  |  |  |  |  |  | 5 | 5 | 5 | 5 | 5 | 5 |  |
| COCSc1cc(-c2ccc(C(F)(F)F)n(C)c2=O)c(F)cc1Cl [1-91] |  |  |  |  |  |  |  | 5 | 5 | 5 | 5 | 5 | 5 |  |
| Cn1c(C(F)(F)F)ccc(-c2cc(Cl)c(Cl)cc2F)c1=O [1-136] |  |  |  |  |  |  |  | 5 | 5 | 5 | 5 | 5 | 5 |  |
| Cn1c(C(F)(F)F)ccc(-c2cc(OCC(F)(F)F)c(Cl)cc2F)c1=O [1-155] |  |  |  |  |  |  |  | 5 | 5 | 5 | 5 | 5 | 5 |  |
| Cn1c(C(F)(F)F)ccc(-c2cc(OCC3CC3)c(Cl)cc2F)c1=O [1-160] |  |  |  |  |  |  |  | 5 | 5 | 5 | 5 | 5 | 5 |  |
| C#CCOc1cc(-c2ccc(C(F)(F)F)n(N)c2=O)c(F)cc1Cl [1-178] |  |  |  |  |  |  |  | 5 | 5 | 5 | 5 | 5 | 5 | 2 |
| COc1cc(-c2ccc(C(F)(F)F)n(N)c2=O)c(F)cc1Cl [1-179] |  |  |  |  |  |  |  | 5 | 5 | 5 | 5 | 5 | 5. | 1 |
| CCOCOc1cc(-c2ccc(C(F)(F)F)n(C)c2=O)c(F)cc1Cl [1-181] |  |  |  |  |  |  |  | 5 | 5 | 5 | 5 | 5 | 5 | 2 |
| C#CC(C)Oc1cc(Cl)cc(F)c1-c1ccc(C(F)(F)F)n(C)c1=O (stereo not shown) [1′-5] | 5 | 5 | 5 | 5 | 5 | 5 |  |  |  |  |  |  |  | 1 |
| C=CC(C)Oc1cc(-c2ccc(C(F)(F)F)n(C)c2=O)c(F)cc1Cl (stereo not shown) [Compound 1-182] |  |  |  |  |  |  |  | 5 | 5 | 5 | 5 | 5 | 5 | 1 |
| CCOC(=O)CON=Cc1cc(-c2ccc(C(F)(F)F)n(C)c2=O)c(F)cc1Cl [Compound 1-191] | 5 | 5 | 5 | 5 | 5 | 5 |  |  |  |  |  |  |  | 2 |
| C=CC(O)c1cc(-c2ccc(C(F)(F)F)n(C)c2=O)c(F)cc1Cl (stereo not shown) [Compound 1-197] | 5 | 5 | 5 | 5 | 5 | 5 |  |  |  |  |  |  |  | 2 |
| C#CC(O)c1cc(-c2ccc(C(F)(F)F)n(C)c2=O)c(F)cc1Cl (stereo not shown) [Compound 1-202] | 5 | 5 | 5 | 5 | 5 | 5 |  |  |  |  |  |  |  |  |
| C=CCN1C(=O)COc2cc(F)c(-c3ccc(C(F)(F)F)n(C)c3=O)cc21 [Compound 2-7] | 5 | 5 | 5 | 5 | 5 | 5 |  |  |  |  |  |  |  |  |
| C#CCN1C(=O)COc2cc(Cl)c(-c3ccc(C(F)(F)F)n(C)c3=O)cc21 [Compound 2-25] | 5 | 5 | 5 | 5 | 5 | 5 |  |  |  |  |  |  |  | 2 |
| C=CCN1C(=O)COc2cc(Cl)c(-c3ccc(C(F)(F)F)n(C)c3=O)cc21 [Compound 2-26] | 5 | 5 | 5 | 5 | 5 | 5 |  |  |  |  |  |  |  | 2 |
| Cc1cc2c(-c3ccc(C(F)(F)F)n(C)c3=O)c(F)cc(Cl)c2o1 [Compound 4-1] | 5 | 5 | 5 | 5 | 5 | 5 |  |  |  |  |  |  |  |  |
| CCc1cc2c(-c3ccc(C(F)(F)F)n(C)c3=O)c(F)cc(Cl)c2o1 [Compound 4-2] | 5 | 5 | 5 | 5 | 5 | 5 |  |  |  |  |  |  |  |  |
| C#CCN1C(=O)COc2cc(F)c(-c3cn(C)c(C(F)(F)F)cc3=O)cc21 [Compound 7-1] | 5 | 5 | 5 | 5 | 5 | 5 | 2 |  |  |  |  |  |  |  |
